The target in test [1] is T1, 9° Nm™ DNA polymerase (9N) (Thermococcus sp., UniProt Q56366, E143D).
T1 construct: purchased New England Biolabs; host or cells: E. coli
Description: Primer extension assay with 9°Nm DNA polymerase. It is filed as biochemical, Thermococcus species (strain 9° N-7). Also noted: key to Incorporation of three 2′F-araTTP / 2′F-araCTP (incorporation efficiency) / Enzymatic activity during primer extension reactions: ++++: excellent (no pausing observed); +++: very good (with slight pausing); ++: Good, full-length products with significant pausing; +: significant pausing, no full-length product but at least one 2′F-araN incorporation detected. The following applies: for Order of efficiency of incorporation: DNA template PF22 (T/U triphosphates) or PF24 (C triphosphates), three contiguous units; for full-length products generated: DNA template PF22, within 2 min, without pausing; for Incorporation of three 2′F-araTTP / 2′F-araCTP (incorporation efficiency): DNA template PF22 (2′F-araTTP) or PF24 (2′F-araCTP); for Enzymatic activity during primer extension reactions: plus dATP, dGTP. As for the experimental part: (§1) Various different types of DNA polymerases were assessed, including the mesophilic enzyme Klenow fragment of DNA pol I (3′→5′ exo-) (“Kf”); the thermophilic DNA polymerases DV, 9N, Taq, Bst pol I, Th and Ph; and the viral reverse transcriptases HIV RT and MMLV. Kf is a genetically engineered proteolytic product of E. coli pol A gene that encodes DNA polymerase I which retains polymerase activity but has a mutation which abolishes the 3′->5′ and 5′->3′ exonuclease activities. DV is a genetically engineered DNA polymerase purified from a strain of E. coli that carries the DV DNA polymerase gene from Pyrococcus species GB-D. The gene has been engineered to eliminate 3′->5′ proofreading exonuclease activity. 9N is a genetically engineered DNA polymerase that has decreased 3′->5′ proofreading exonuclease activity. 9N is purified from a strain of E. coli that carries a modified 9° N DNA polymerase gene from Thermococcus species (strain 9° N-7). […] Taq polymerase is isolated from E. coli engineered to express Taq polymerase from Thermus aquaticus YT-1. Bst DNA polymerase (Large fragment) is a genetically engineered polymerase that consists of the portion of the Bacillus stearothemmophilus DNA polymerase protein responsible for 5′->3′ polymerase activity but lacks the 5′->3′ exonuclease domain. Th DNA polymerase is a genetically engineered, archaeon-derived DNA polymerase that is a variant of the 9N polymerase described above. The recombinant protein is isolated from E. coli engineered to express 9° NA485L (exo-) DNA polymerase gene, a genetic variant of the native DNA polymerase from Thermococcus species 9° N-7. Ph is a recombinant DNA polymerase that consists of a novel Pyrococcus-like enzyme fused with a double-strand DNA-binding and processivity-enhancing domain.
(§2) Primer extension assays were used to assess the incorporation of 2′F-araNTP on the various DNA templates (Table 1). The DNA primer (PF20) was first radioactively labeled at the 5′-hydroxyl terminus with a radioactive phosphorus probe and the enzyme T4 polynucleotide kinase (T4 PNK) (see Example 1 for General Methods). To assess the incorporation of 2′F-araNTPs, the primer and template were annealed, and the nucleoside 5′-triphosphates added in the presence of enzyme under the conditions specified in Table 2. Time points were obtained by analyzing small aliquots from the reaction mixture through polyacryamide gel electrophoresis (PAGE) and autoradiography.
(§3) Unless otherwise noticed in the Examples described below, the conditions used in the primer extension assays, such as dNTP concentration, reaction temperatures, concentration of Mg^2+, and reaction buffers (provided by the manufacturers, except for the HIV buffer which was prepared in-house) are shown in Table 2.
(§4) Primer extension assays were used to assess the incorporation of 2′F-araTTP on the DNA template (PF22). The DNA primer (PF20) was first radioactively labeled at the 5′-hydroxyl terminus with a radioactive phosphorus probe and the enzyme T4 polynucleotide kinase (T4 PNK) according to the manufacturer's specifications (MBI Fermentas Life Sciences, Burlington, ON). Incorporation of the ^32P label was accomplished in reaction mixtures consisting of DNA substrate (200 pmol), 2 μl loxreaction buffer (Buffer A for forward reaction: 500 mM Tris-HCl, pH 7.6 at 25° C., 100 mM MgCl2, 50 mM DTT, 1 mM spermidine and 1 mM EDTA), 1 μl T4 PNK enzyme solution (10 U/1 μl in a solution of 20 mM Tris-HCl, pH 7.5, 25 mM KCl, 0.1 mM EDTA, 2 mM DTT and 50% glycerol), 6 μl [γ-^32P]-ATP solution (6000 Ci/mmol, 10 mCi/ml; Amersham Biosciences, Inc.) and autoclaved sterile water to a final volume of 20 μl. The reaction mixture was incubated for about 45-60 min at 37° C., followed by a second incubation for 10 min at 95° C. to heat denature and deactivate the kinase enzyme.

In test [2] the target is T2, Deep Vent® (3′→5′ exo-) DNA polymerase (DV) (Pyrococcus sp., UniProt Q51334, D141A/DEL493-1029/E143A).
T2 construct: purchased New England Biolabs; host or cells: E. coli
Put plainly: Primer extension assay with Deep Vent (exo-) DNA polymerase. The test is classed as biochemical, Pyrococcus species GB-D. Set-up: key to Incorporation of three 2′F-araTTP / 2′F-araCTP (incorporation efficiency) / Enzymatic activity during primer extension reactions: ++++: excellent (no pausing observed); +++: very good (with slight pausing); ++: Good, full-length products with significant pausing; +: significant pausing, no full-length product but at least one 2′F-araN incorporation detected. The following applies: for Order of efficiency of incorporation: DNA template PF22 (T/U triphosphates) or PF24 (C triphosphates), three contiguous units; for Incorporation of three 2′F-araTTP / 2′F-araCTP (incorporation efficiency): DNA template PF22 (2′F-araTTP) or PF24 (2′F-araCTP); for Enzymatic activity during primer extension reactions: plus dATP, dGTP. As for the experimental part:
as §1, §2, §3, §4

Setting [3] is: Example 3, DNA template PF24, 3x 2′F-araCTP, dTTP, 55° C.
The mark [4] stands for this setting: Example 2, DNA template PF22, 3x 2′F-araTTP, dCTP, at 37° C.

Entries after “also recorded” stand apart in the source; their conditions may differ. Marks after values point to notes of the source that are not given here.

As for `Cc1cn([C@H]2C[C@H](O)[C@@H](COP(=O)(O)OP(=O)(O)OP(=O)(O)O)O2)c(=O)[nH]c1=O` [dTTP, reference compound], in test [1] (55° C.), the “Order of efficiency of incorporation” value was “dTTP~2′F-araTTP > 2′F-rUTP” and the full-length products generated result was “ca. 100%”. In addition, the “Order of efficiency of incorporation” value in test [2] (55° C.) is reported as “dTTP~2′F-araTTP > 2′F-rUTP”.
Consider `O=c1ccn([C@@H]2O[C@H](COP(=O)(O)OP(=O)(O)OP(=O)(O)O)[C@@H](O)[C@H]2F)c(=O)[nH]1` [2′F-rUTP, 1-(2-deoxy-2-fluoro-β-D-ribo-furanosyl)uracil 5′-triphosphate, reference compound], for which the “Order of efficiency of incorporation” value in test [1] (55° C.) and in test [2] (55° C.) was “dTTP~2′F-araTTP > 2′F-rUTP” each time. In addition, in test [1] (DNA template PF22, after one hour, 55° C.), the expected full-length product result is “ca. 20%”. For the same molecule, in test [2] (DNA template PF22, after 9.5 h, 55° C.), the desired full-length product stood at 20%.
As to `Nc1ccn([C@@H]2O[C@H](COP(=O)(O)OP(=O)(O)OP(=O)(O)O)[C@@H](O)[C@@H]2F)c(=O)n1` [2′F-araCTP, 1-(2-deoxy-2-fluoro-β-D-arabinofuranosyl)cytosine 5′-triphosphate], the “Incorporation of three 2′F-araTTP / 2′F-araCTP (incorporation efficiency)” value in test [1] (37° C.) is given as “None”; in test [1] (55° C.) it was “++++”; in test [2] (37° C.) it was “+++”; in test [2] (55° C.), “++++”. Further, the “Order of efficiency of incorporation” value in test [1] (55° C.) is on record as “dCTP~2′F-araCTP~2′F-rCTP”; in test [2] (55° C.), “dCTP~2′F-rCTP~2′F-araCTP”. Also, the figures for the “Enzymatic activity during primer extension reactions” value in test [1] (setting [3]) and in test [2] (setting [3]) were “+++” and “++++”, respectively.
For the molecule `Cc1cn([C@@H]2O[C@H](COP(=O)(O)OP(=O)(O)OP(=O)(O)O)[C@@H](O)[C@@H]2F)c(=O)[nH]c1=O` [2′F-araTTP, 1-(2-deoxy-2-fluoro-β-D-arabino-furanosyl)thymine 5′-triphosphate], the “Incorporation of three 2′F-araTTP / 2′F-araCTP (incorporation efficiency)” value in test [1] (37° C.) and in test [2] (37° C.) was “++++” each time. For the same molecule, the “Order of efficiency of incorporation” value in test [1] (55° C.) and in test [2] (55° C.) was “dTTP~2′F-araTTP > 2′F-rUTP” each time. The full-length products generated entry in test [1] (55° C.) is reported as “ca. 100%”. The “Enzymatic activity during primer extension reactions” value in test [1] (setting [4]) and in test [2] (setting [4]) was “+++^b” each time. Besides, the “yield of full length product” value in test [2] (DNA template PF22, after 5 min, 55° C.) was “nearly quantitative yield; also recorded: near quantitative yield”.
With `Nc1ccn([C@H]2C[C@H](O)[C@@H](COP(=O)(O)OP(=O)(O)OP(=O)(O)O)O2)c(=O)n1` [dCTP], the “Order of efficiency of incorporation” value in test [1] (55° C.) is reported as “dCTP~2′F-araCTP~2′F-rCTP”; in test [2] (55° C.), “dCTP~2′F-rCTP~2′F-araCTP”.
`Nc1ccn([C@@H]2O[C@H](COP(=O)(O)OP(=O)(O)OP(=O)(O)O)[C@@H](O)[C@H]2F)c(=O)n1` [2′F-rCTP, 1-(2-deoxy-2-fluoro-β-D-ribofuranosyl) cytosine 5′-triphosphate, reference compound]: the “Order of efficiency of incorporation” value is reported as “dCTP~2′F-araCTP~2′F-rCTP” in test [1] (55° C.) and “dCTP~2′F-rCTP~2′F-araCTP” in test [2] (55° C.).
